The values below come from patent US20240034730A1, “PYRAZOLO DERIVATIVES AS HUMAN DIHYDROOROTATE DEHYDROGENASE (HDHODH) INHIBITORS FOR USE AS ANTIVIRALS” (DRUG DISCOVERY AND CLINIC S.R.L., priority 2020, published 2024).

Molecules are shown by their SMILES. Where two headings read alike, the source gives them in different places.

As usually defined, the IC50 is the point on the concentration scale where inhibition reaches its midpoint. Broadly, the melting point is the temperature, or range, at which the solid turns liquid. Usually EC50 stands for the midpoint of the concentration-response curve.

Data set [1] has as its system hCoV-OC43. Kind of data set: Focus forming reduction assay (FFRA), hCoV-OC43 in HCT-8 cells, single concentration. Format: cell-based. The settings on record: Betacoronavirus 1, OC43, HCT-8, 72 h, HCT8 cells, 72 h p.i., vs DMSO control, read-out: % Decrease of hCoV-OC43 replication in presence of inhibitor 0.1 μM.
Data set [2] concerns the target recombinant hDHODH (Homo sapiens (Human), UniProt Q02127). The data set can be described thus: hDHODH inhibition assay (DCIP reduction). Format: biochemical. The settings on record: recombinant GST-hDHODH; means ± SE of three independent experiments; read-out: hDHODH IC50 ± SE.
For data set [3] the following is noted: pH 7.4.
Description: (§1) Lipophilicity. The shake flask method was chosen to determinate logD7.4.
(§2) The partition coefficients between n-octanol and PBS at pH 7.4 (log D^7.4) were obtained using the shake-flask technique at room temperature. In the shake-flask experiments, 50 mM of phosphate buffered saline pH 7.4 was used as the aqueous phase. The organic (n-octanol) and aqueous phases were mutually saturated by shaking for 4 h. The compounds were solubilized in the buffered aqueous phase at the highest concentration compatible with solubility and appropriate amounts of n-octanol were added. The two phases were shaken for about 20 min, by which time the partitioning equilibrium of solutes had been reached, and then centrifuged (10000 rpm, 10 min).
Data set [4] deals with hCoV-OC43. The data set can be described thus: Anti-hCoV-OC43 activity in HCT-8 cells, concentration-dependent.
For data set [5] the following is noted: literature value (refs 15, 16); read-out: CC50 from literature (SARS-CoV-2); cited from earlier work.
In data set [6] the test system is hCoV-229E. Kind of data set: Anti-hCoV-229E activity in MRC5 fibroblasts (CPE, CellTiter-Glo). In kind it is cell-based.
The test system of data set [7] is HSV-1. Kind of data set: Plaque reduction assay (PRA), HSV-1 in Vero cells. In kind it is cell-based, Herpes simplex virus 1. The settings on record: Human alphaherpesvirus 1, Vero.
Data set [8] in a line: log D (pH 7.4), shake-flask n-octanol/PBS. The settings on record: n-octanol/PBS pH 7.4, shake flask.
Description: as §1, §2
Data set [9] has as its system SARS-CoV-2. The settings on record: literature value (refs 15, 16); read-out: EC50 SARS-CoV-2 from literature; cited from earlier work.
The test system of data set [10] is RSV. The settings on record: literature value (ref 17); read-out: EC50 RSV from literature; cited from earlier work.
Data set [11] is described as follows: in vitro. Particulars: African green monkey.
In data set [12] the test system is HSV-2. The data set can be described thus: Plaque reduction assay (PRA), HSV-2 in Vero cells. Format: cell-based, Herpes simplex virus 2. Particulars: Human alphaherpesvirus 2, Vero, read-out: EC50 HSV-2. In general terms: Plaque reduction counts the foci of infection that form in a cell layer.
A short description of data set [13]: Cytotoxicity on MDCK cells (Cell Titer Glo). Format: cell-based, Canine. Particulars: dog, read-out: CC50 (Influenza A row).
The nature of data set [14]: in vitro. Format: cell-based. Particulars: human.
Data set [15] deals with RSV. The data set can be described thus: Plaque reduction assay (PRA), RSV in HEp-2 cells. Format: cell-based. The settings on record: human respiratory syncytial virus, HEp-2, read-out: EC50 RSV.
The subject of data set [16] is Influenza A virus (A/Puerto Rico/8/34). Kind of data set: microbe, parasite or virus in culture. Particulars: PRA, MDCK cells. In kind it is cell-based.
A short description of data set [17]: Solubility assay at pH 7.4 in PBS. In kind it is physicochemical. The settings on record: pH 7.4.
Description: Solubility assay at pH 7.4. […] The samples were shaken in an orbital shaker at 25° C. for 24 h. These suspensions were filtered through a PTFE 0.45 μm filter (VWR), and the solutions were chromatographically analyzed using a Perkin Elmer Ultra High Performance Liquid Chromatography (UHPLC) instrument, equipped with a reverse-phase (RP) C18 Phenomenex column (2.1×100 mm, 1.7 μm particle size). Gradient elution: the ratio of eluents A and B (0.1% trifluoroacetic acid in water and 0.1% trifluoroacetic acid in acetonitrile, respectively) changed linearly from 60% A-40% B to 0% A-100% B in 12 minutes, followed by 5 minutes in isocratic elution at 100% of eluent B and then 4 minutes in equilibration elution to reset the starting conditions. The flow rate was 0.5 mL/min. Standard injection volumes were either 2 or 4 μl for poorly soluble compounds. The detection system was a Perkin Elmer diode-array-detector. The wavelengths that were monitored for each compound were defined according to the compound's own absorption spectrum. Solubility, expressed as μM concentration of the saturated solution, was calculated via interpolation with external calibration curves that were obtained with solutions of each compound in acetonitrile.

Sequence of recombinant hDHODH (Q02127 whole entry): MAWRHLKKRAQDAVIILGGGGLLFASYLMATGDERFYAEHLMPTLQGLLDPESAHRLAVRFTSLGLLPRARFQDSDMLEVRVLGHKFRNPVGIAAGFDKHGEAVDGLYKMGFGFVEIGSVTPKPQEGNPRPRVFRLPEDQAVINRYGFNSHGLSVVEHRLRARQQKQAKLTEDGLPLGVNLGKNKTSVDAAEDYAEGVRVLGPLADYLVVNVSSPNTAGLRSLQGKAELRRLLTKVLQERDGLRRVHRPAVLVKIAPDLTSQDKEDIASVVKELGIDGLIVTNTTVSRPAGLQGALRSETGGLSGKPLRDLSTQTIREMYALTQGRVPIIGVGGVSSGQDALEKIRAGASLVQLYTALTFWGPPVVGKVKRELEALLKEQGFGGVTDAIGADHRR

For the compound `O=C(Nc1c(F)c(F)c(-c2cccc(OC(F)(F)F)c2)c(F)c1F)c1c(O)nn2ccccc12` [Compound 15, 2-Hydroxy-N-(2,3,5,6-tetrafluoro-3′-(trifluoromethoxy)-[1,1′-biphenyl]-4-yl)pyrazolo[1,5-a]pyridine-3-carboxamide], the inhibition at 0.1 µM in [1] stood at 93.6%. Also, the IC50 in data set [2] was found to be 2.3 ± 0.33 nM. Further, the “Log D7.4 ± SD” value in data set [3] is 3.27 ± 0.19.
Regarding `CC(F)(F)COc1cccc(-c2c(F)c(F)c(NC(=O)c3c(O)nn4ccccc34)c(F)c2F)c1` [Compound 40, N-(3′-(2,2-difluoropropoxy)-2,3,5,6-tetrafluoro-[1,1′-biphenyl]-4-yl)-2-hydroxypyrazolo[1,5-a]pyridine-3-carboxamide], the melting point fell in the range of 229.6 to 231.7 °C. In data set [2], the IC50 was found to be 1.48 ± 0.2 nM.
Turning to `CCC(CC)COC(=O)[C@H](C)N[P@](=O)(OC[C@H]1O[C@@](C#N)(c2ccc3c(N)ncnn23)[C@H](O)[C@@H]1O)Oc1ccccc1` [Remdesivir], the EC50 is 147 ± 34 nM in data set [4] (read-out: EC50 hCoV-OC43) and 34.8 ± 5 nM in data set [6] (Human coronavirus 229E, MRC5 fibroblasts). In data set [5], the CC50 was over 100000 nM.
In the case of `Nc1nc2c(ncn2COCCO)c(=O)[nH]1` [ACV], in data set [7] (read-out: EC50 anti-HSV of reference drug), the EC50 was found to be 180 nM.
As for `O=C(Nc1ccc2c(ccn2-c2ccccc2)c1)c1c(O)nn2ccccc12` [Compound 20, 2-Hydroxy-N-(1-phenyl-1H-indol-5-yl)pyrazolo[1,5-a]pyridine-3-carboxamide], the melting point was 133.6 to 135.9 °C. In addition, the IC50 in data set [2] is 2760 ± 386 nM. For the same compound, the “Log D7.4 ± SD” value in [8] is on record as 2.89 ± 0.05.
On to `O=C(Nc1c(F)c(F)c(-c2ccnc(C(F)(F)F)c2)c(F)c1F)c1c(O)nn2ccccc12` [Compound 9, 2-Hydroxy-N-(2,3,5,6-tetrafluoro-4-(2-(trifluoromethyl)pyridin-4-yl)phenyl)pyrazolo[1,5-a]pyridine-3-carboxamide], for which the inhibition at 0.1 µM in data set [1] is over 50%. Besides, the IC50 in data set [2] came out at 150 ± 15 nM. In data set [3], the “Log D7.4 ± SD” value was found to be 1.84 ± 0.06.
`O=C(Nc1ccc2c(c1)nnn2-c1ccccc1)c1c(O)nn2ccccc12` [Compound 22, 2-Hydroxy-N-(1-phenyl-1H-benzo[d][1,2,3]triazol-5-yl)pyrazolo[1,5-a]pyridine-3-carboxamide] came in with a melting point of 133.6 to 135.9 °C. For the same compound, the IC50 in data set [2] was 7200 ± 1600 nM. For the same compound, the “Log D7.4 ± SD” value in data set [8] was 1.59 ± 0.03.
As for `O=c1nc(NO)ccn1[C@@H]1O[C@H](CO)[C@@H](O)[C@H]1O` [EIDD-1931], the CC50 in data set [5] was over 10000 nM. Besides, the EC50 in data set [9] was 300 nM; in data set [10], 690 nM.
Compound `CCCOc1cccc(-c2c(F)c(F)c(NC(=O)c3c(O)nn4ccccc34)c(F)c2F)c1` [Compound 17, 2-Hydroxy-N-(2,3,5,6-tetrafluoro-3′-propoxy-[1,1′-biphenyl]-4-yl) pyrazolo[1,5-a]pyridine-3-carboxamide] showed a CC50 at 3 days in data set [11] of 117000 nM. Besides, the EC50 in data set [7] (read-out: EC50 HSV-1) is 90 nM; in data set [12], 110 nM. In addition, in data set [3], the “Log D7.4 ± SD” value amounted to 3.28 ± 0.12.
On to `Cc1c(-c2ccc(-c3ccccc3F)cc2)nc2ccc(F)cc2c1C(=O)O` [Brequinar], for which the CC50 at 72 h was determined as 5000 nM in [13] and 168000 nM in data set [14]. Moreover, the EC50 in data set [4] (read-out: EC50 hCoV-OC43) is 42.7 nM; in data set [4] (read-out: EC50 hCoV-OC43, listed as brequinar) it was 22 ± 3 nM; in data set [15], 15 nM; in [6] (Human coronavirus 229E, MRC5, MRC5 fibroblasts) it was 42.7 ± 3 nM; in data set [6] (MRC5 fibroblasts) it was 22 nM; in [7] (read-out: EC50 HSV-1), 530 nM. In addition, the EC50 came to 1770 nM in [12] and 760 nM in data set [16]. In addition, the CC50 at 3 days in [11] is 100000 nM. The “Log D7.4 ± SD” value in data set [8] was 1.83 ± 0.02.
The compound `O=C(Nc1ccc2c(c1)ncn2-c1ccccc1)c1c(O)nn2ccccc12` [Compound 21, 2-Hydroxy-N-(1-phenyl-1H-benzo[d]imidazol-5-yl)pyrazolo[1,5-a]pyridine-3-carboxamide] displayed a melting point of 133.6 to 135.9 °C. In addition, the IC50 in data set [2] is over 10000 nM. Besides, the “Log D7.4 ± SD” value in data set [8] came to 2.55 ± 0.04.
Take `O=C(Nc1c(F)c(F)c(-c2ccccc2)c(F)c1F)c1c(O)nn2c1CCCC2` [Compound 5, 2-Hydroxy-N-(2,3,5,6-tetrafluoro-[1,1′-biphenyl]-4-yl)-4,5,6,7-tetrahydropyrazolo[1,5-a]pyridine-3-carboxamide]: in [17], the “Solubility in PBS” value is “<LOD”. Also, the inhibition at 0.1 µM in data set [1] is 31.3%. The IC50 in [2] was 5.8 ± 0.4 nM. The “Log D7.4 ± SD” value in data set [3] amounted to 2.36 ± 0.02.
